Measured values taken from patent US20080269267A1, “KINASE INHIBITORS USEFUL FOR THE TREATMENT OF MYLEOPROLIFIC DISEASES AND OTHER PROLIFERATIVE DISEASES” (Deciphera Pharmaceuticals, LLC, priority 2007, published 2008).
Counter-ions that a name gives are not always drawn.

Experiments:
[1] = biological target: B-Raf(V600E) kinase (SEQ ID NO:11) (Homo sapiens, UniProt P15056, V600E); test: B-Raf(V600E) kinase assay (pyruvate kinase/lactate dehydrogenase coupled, MEK1 substrate); conditions: 1 h preincubation at 30° C., ATP 0.2 mM; read-out: B-Raf V600E Enzyme Assay, biochemical IC50
Method: B-Raf(V600E) Kinase Assay
The activity of B-Raf(V600E) kinase (SEQ ID NO:11) was determined by following the formation of ADP from the reaction through coupling with the pyruvate kinase/lactate dehydrogenase system (e.g., Schindler, et al. Science (2000) 289, 1938-1942). In this assay, the oxidation of NADH (thus the decrease at A340nm) was continuously monitored spectrophotometrically. The reaction mixture (100 μl) contained B-Raf(V600E) kinase (0.34 nM nominal concentration, SEQ ID NO:11), unphosphorylated, full-length MEK1 (42 nM, SEQ ID NO:12), MgCl2 (13 mM), pyruvate kinase (3.5 units), lactate dehydrogenase (5.5 units), phosphoenolpyruvate (1 mM), and NADH (0.28 mM), in 60 mM Tris buffer, containing 0.13% octyl-glucoside and 3.5% DMSO concentration at pH 7.5. The test compounds were incubated with the reaction mixture at 30° C. for 1 h. The reaction was initiated by adding ATP (0.2 mM, final concentration). The absorption at 340 nm was continuously monitored for 3 h at 30° C. on a Polarstar Optima plate reader (BMG). The reaction rate was calculated using the 0.5 h to 1.5 h time frame. Percent inhibition was obtained by comparison of reaction rate with that of a control (i.e. with no test compound). IC50 values were calculated from a series of percent inhibition values determined at a range of inhibitor concentrations using software routines as implemented in the GraphPad Prism software package.

[2] = biological target: T1, C-Met kinase (SEQ ID NO:10) (Homo sapiens, UniProt P08581); test: C-Met kinase assay (pyruvate kinase/lactate dehydrogenase coupled); conditions: 0.5 h preincubation at 22° C., ATP 100 μM; read-out: c-Met Enzyme Assay, biochemical IC50
T1 construct: purchased Invitrogen PV3143
Method: C-Met Kinase (SEQ ID NO:10) Assay
Activity of C-Met kinase (SEQ ID NO:10) was determined by following the production of ADP from the kinase reaction through coupling with the pyruvate kinase/lactate dehydrogenase system (e.g., Schindler, et al. Science (2000) 289, 1938-1942). In this assay, the oxidation of NADH (thus the decrease at A340 nm) was continuously monitored spectrophometrically. The reaction mixture (100 μl) contained C-Met (c-Met residues; 956-1390, from Invitrogen, catalogue #PV3143, 6 nM), polyE4Y (1 mg/ml), MgCl2 (10 mM), pyruvate kinase (4 units), lactate dehydrogenase (0.7 units), phosphoenol pyruvate (1 mM), and NADH (0.28 mM) in 90 mM Tris buffer containing 0.25 mM DTT, 0.2% octyl-glucoside and 1% DMSO, pH 7.5. Test compounds were incubated with C-Met (SEQ ID NO:10) and other reaction reagents at 22° C. for 0.5 h before ATP (100 μM) was added to start the reaction. The absorption at 340 n=was monitored continuously for 2 hours at 30° C. on Polarstar Optima plate reader (BMG). The reaction rate was calculated using the 1.0 to 2.0 h time frame. Percent inhibition was obtained by comparison of reaction rate with that of a control (i.e. with no test compound). IC50 values were calculated from a series of percent inhibition values determined at a range of inhibitor concentrations using software routines as implemented in the GraphPad Prism software package.

[3] = biological target: T2, c-Kit kinase (SEQ ID NO:9) (Homo sapiens, UniProt P10721); test: c-Kit kinase assay (pyruvate kinase/lactate dehydrogenase coupled); conditions: <2 min preincubation at 22° C., ATP 200 μM; read-out: c-Kit Enzyme Assay, biochemical IC50
T2 construct: purchased ProQinase
Method: C-Kit Kinase (SEQ ID NO:9) Assay
Activity of c-Kit kinase (SEQ ID NO:9) was determined by following the production of ADP from the kinase reaction through coupling with the pyruvate kinase/lactate dehydrogenase system (e.g., Schindler, et al. Science (2000) 289, 1938-1942). In this assay, the oxidation of NADH (thus the decrease at A340 nm) was continuously monitored spectrophometrically. The reaction mixture ([…]) contained c-Kit (cKIT residues T544-V976, from ProQinase, 5.4 nM), polyE4Y (1 mg/ml), MgCl2 (10 mM), pyruvate kinase (4 units), lactate dehydrogenase (0.7 units), phosphoenol pyruvate (1 mM), and NADH (0.28 mM) in 90 mM Tris buffer containing 0.2% octyl-glucoside and 1% DMSO, pH 7.5. Test compounds were incubated with […] (SEQ ID NO:9) and other reaction reagents at 22° C. for <2 min before ATP (200 μM) was added to start the reaction. The absorption at 340 nm was monitored continuously for 0.5 hours at 30° C. on Polarstar Optima plate reader (BMG). The reaction rate was calculated using the 0 to 0.5 h time frame. Percent inhibition was obtained by comparison of reaction rate with that of a control (i.e. with no test compound). IC50 values were calculated from a series of percent inhibition values determined at a range of inhibitor concentrations using software routines as implemented in the GraphPad Prism software package.

T2 sequence (P10721 with tags, fused parts or gaps): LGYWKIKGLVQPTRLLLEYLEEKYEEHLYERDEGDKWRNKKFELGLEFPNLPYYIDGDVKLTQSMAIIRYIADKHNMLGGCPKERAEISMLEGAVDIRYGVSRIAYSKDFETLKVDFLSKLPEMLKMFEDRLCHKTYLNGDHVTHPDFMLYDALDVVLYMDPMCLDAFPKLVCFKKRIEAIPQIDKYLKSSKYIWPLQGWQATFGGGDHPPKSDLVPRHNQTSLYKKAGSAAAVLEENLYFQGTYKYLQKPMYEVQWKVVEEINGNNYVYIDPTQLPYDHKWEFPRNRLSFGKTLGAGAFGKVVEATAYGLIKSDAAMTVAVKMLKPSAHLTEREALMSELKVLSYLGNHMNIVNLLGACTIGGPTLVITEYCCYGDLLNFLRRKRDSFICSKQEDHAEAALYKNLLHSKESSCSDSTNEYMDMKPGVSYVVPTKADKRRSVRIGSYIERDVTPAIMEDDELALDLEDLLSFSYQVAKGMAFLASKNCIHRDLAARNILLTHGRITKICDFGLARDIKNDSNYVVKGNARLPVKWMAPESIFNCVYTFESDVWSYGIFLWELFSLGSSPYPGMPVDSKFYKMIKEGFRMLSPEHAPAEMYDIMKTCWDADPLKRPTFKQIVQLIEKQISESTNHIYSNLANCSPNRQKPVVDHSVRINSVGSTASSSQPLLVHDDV
B-Raf(V600E) kinase (SEQ ID NO:11), sequence (P15056 with tags, fused parts or gaps V600E): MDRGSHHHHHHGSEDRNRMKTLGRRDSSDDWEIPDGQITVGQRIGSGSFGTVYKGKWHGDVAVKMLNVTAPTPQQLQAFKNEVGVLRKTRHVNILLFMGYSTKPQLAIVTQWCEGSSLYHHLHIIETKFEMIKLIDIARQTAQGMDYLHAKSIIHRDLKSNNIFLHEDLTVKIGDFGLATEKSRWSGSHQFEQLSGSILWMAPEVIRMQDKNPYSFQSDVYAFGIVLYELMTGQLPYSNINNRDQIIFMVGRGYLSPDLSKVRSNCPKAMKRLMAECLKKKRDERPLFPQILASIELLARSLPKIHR
T1 sequence (P08581 with tags, fused parts or gaps): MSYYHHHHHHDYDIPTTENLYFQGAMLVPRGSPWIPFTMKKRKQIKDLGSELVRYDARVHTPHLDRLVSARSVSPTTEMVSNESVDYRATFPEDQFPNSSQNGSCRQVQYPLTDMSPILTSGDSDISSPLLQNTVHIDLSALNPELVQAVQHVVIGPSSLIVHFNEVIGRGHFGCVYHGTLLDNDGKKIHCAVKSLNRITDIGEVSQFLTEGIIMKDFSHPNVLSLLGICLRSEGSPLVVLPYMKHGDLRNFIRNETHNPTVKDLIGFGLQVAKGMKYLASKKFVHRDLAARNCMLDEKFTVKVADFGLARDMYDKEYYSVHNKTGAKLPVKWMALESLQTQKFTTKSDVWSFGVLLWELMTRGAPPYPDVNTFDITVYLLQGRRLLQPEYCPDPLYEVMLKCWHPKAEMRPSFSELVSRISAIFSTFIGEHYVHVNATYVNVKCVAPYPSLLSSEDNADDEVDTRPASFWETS

| Compound | IC50 [1] [nM] | IC50 [2] [nM] | IC50 [3] [nM] |
| --- | --- | --- | --- |
| 1-(2-tert-butyl-4-(pyridin-3-yl)pyrimidin-5-yl)-3-(2-fluoro-5-(8-methyl-2-(methylamino)-7-oxo-7,8-dihydropyrido[2,3-d]pyrimidin-6-yl)phenyl)urea [Example 10] | < 1000 | < 10000 |  |
| CC(C)c1cc(NC(=O)Nc2ccc(Oc3ccnc(-c4cnn(C)c4)c3)cc2F)n(-c2cccc(C#N)c2)n1 [Example 2, 1-(1-(3-cyanophenyl)-3-isopropyl-1H-pyrazol-5-yl)-3-(2-fluoro-4-(2-(1-methyl-1H-pyrazol-4-yl)pyridin-4-yloxy)phenyl)urea] | < 100 | < 100 | < 100 |
| CC(C)(C)c1cc(NC(=O)Nc2ccc(Oc3ccnc(-c4cn[nH]c4)c3)cc2F)n(-c2cccc(C#N)c2)n1 [Example 3, 1-(4-(2-(1H-pyrazol-4-yl)pyridin-4-yloxy)-2-fluorophenyl)-3-(3-tert-butyl-1-(3-cyanophenyl-1H-pyrazol-5-yl)urea hydrochloride] | < 100 | < 100 |  |
| Cn1cc(-c2cc(Oc3ccc(NC(=O)Nc4cc(C(C)(C)C)nn4-c4cccc(C#N)c4)c(F)c3)ccn2)cn1 [Example 4, 1-(3-tert-butyl-1-(3-cyanophenyl)-1H-pyrazol-5-yl)-3-(2-fluoro-4-(2-(1-methyl-1H-pyrazol-4-yl)pyridin-4-yloxy)phenyl)urea hydrochloride] | < 100 | < 100 |  |
| CC(C)c1cc(NC(=O)Nc2ccc(Oc3ccnc(-c4cnn(C)c4)c3)cc2F)n(-c2ccc(F)c(C#N)c2)n1 [Example 5, 1-(1-(3-cyano-4-fluorophenyl)-3-isopropyl-1H-pyrazol-5-yl)-3-(2-fluoro-4-(2-(1-methyl-1H-pyrazol-4-yl)pyridin-4-yloxy)phenyl)urea] | < 100 | < 1000 | < 100 |
| Cn1cc(-c2cc(Oc3ccc(NC(=O)Nc4cc(C(C)(C)C)nn4-c4ccc(C#N)cc4)c(F)c3)ccn2)cn1 [Example 6, 1-(3-tert-butyl-1-(4-cyanophenyl)-1H-pyrazol-5-yl)-3-(2-fluoro-4-(2-(1-methyl-1H-pyrazol-4-yl)pyridin-4-yloxy)phenyl)urea] | < 100 | < 100 |  |
| Cn1cc(-c2cc(Oc3ccc(NC(=O)Nc4cc(C(C)(C)C)nn4-c4cccc(CO)c4)c(F)c3)ccn2)cn1 [Example 7, 1-(3-tert-butyl-1-(3-(hydroxymethyl)phenyl)-1H-pyrazol-5-yl)-3-(2-fluoro-4-(2-(1-methyl-1H-pyrazol-4-yl)pyridin-4-yloxy)phenyl)urea p-toluenesulfonic acid] | < 100 | < 100 |  |
| Cn1cc(-c2cc(Oc3ccc(NC(=O)Nc4cc(C(C)(C)C)nn4-c4ccc(CO)cc4)c(F)c3)ccn2)cn1 [Example 8, 1-(3-tert-butyl-1-(4-(hydroxymethyl)phenyl)-1H-pyrazol-5-yl)-3-(2-fluoro-4-(2-(1-methyl-1H-pyrazol-4-yl)pyridin-4-yloxy)phenyl)urea] | < 100 | < 100 |  |
| CCc1cc(NC(=O)Nc2ccc(Oc3ccnc(-c4cnn(C)c4)c3)cc2F)n(-c2cccc(C#N)c2)n1 [Example 9, 1-(1-(3-cyanophenyl)-3-ethyl-1H-pyrazol-5-yl)-3-(2-fluoro-4-(2-(1-methyl-1H-pyrazol-4-yl)pyridin-4-yloxy)phenyl)urea] | < 1000 | < 1000 | < 100 |
| Cc1ccc(-n2nc(C(C)C)cc2NC(=O)Nc2ccc(Oc3ccnc(-c4cnn(C)c4)c3)cc2F)cc1C#N [Example 11, 1-(1-(3-cyano-4-methylphenyl)-3-isopropyl-1H-pyrazol-5-yl)-3-(2-fluoro-4-(2-(1-methyl-1H-pyrazol-4-yl)pyridin-4-yloxy)phenyl)urea] | < 100 | < 100 |  |
| Cc1c(Oc2ccnc(-c3cnn(C)c3)c2)ccc(NC(=O)Nc2cc(C(C)C)nn2-c2cccc(C#N)c2)c1F [Example 12, 1-(1-(3-cyanophenyl)-3-isopropyl-1H-pyrazol-5-yl)-3-(2-fluoro-3-methyl-4-(2-(1-methyl-1H-pyrazol-4-yl)pyridin-4-yloxy)phenyl)urea] | < 100 | < 100 | < 100 |
| CC(C)c1cc(NC(=O)Nc2ccc(Oc3ccnc(-c4cnn(C)c4)c3)c(F)c2F)n(-c2cccc(C#N)c2)n1 [Example 13, 1-(1-(3-cyanophenyl)-3-isopropyl-1H-pyrazol-5-yl)-3-(2,3-difluoro-4-(2-(1-methyl-1H-pyrazol-4-yl)pyridin-4-yloxy)phenyl)urea] | < 100 | < 100 | < 100 |
| Cc1ncc(NC(=O)Nc2ccc(Oc3ccnc(-c4cnn(C)c4)c3)cc2F)c(-c2ccccc2)n1 [Example 14, 1-(2-fluoro-4-(2-(1-methyl-1H-pyrazol-4-yl)pyridin-4-yloxy)phenyl)-3-(2-methyl-4-phenylpyrimidin-5-yl)urea] | < 100000 | < 10000 |  |
| CC(C)c1cc(NC(=O)Nc2ccc(Oc3ccnc(-c4cnn(C)c4)c3)c(F)c2)n(-c2cccc(C#N)c2)n1 [Example 16, 1-(1-(3-cyanophenyl)-3-isopropyl-1H-pyrazol-5-yl)-3-(3-fluoro-4-(2-(1-methyl-1H-pyrazol-4-yl)pyridin-4-yloxy)phenyl)urea] | < 100 | < 100 |  |
| CCc1cc(NC(=O)Nc2ccc(Oc3ccnc(-c4cnn(C(C)C)c4)c3)cc2F)n(-c2cccc(C#N)c2)n1 [Example 17, 1-(1-(3-cyanophenyl)-3-ethyl-1H-pyrazol-5-yl)-3-(2-fluoro-4-(2-(1-isopropyl-1H-pyrazol-4-yl)pyridin-4-yloxy)phenyl)urea] | < 10000 | < 1000 | < 100 |
| CCc1cc(NC(=O)Nc2ccc(Oc3ccnc(-c4cnn(C)c4)c3)cc2F)n(-c2ccc(CO)cc2)n1 [Example 19, 1-(3-ethyl-1-(4-(hydroxymethyl)phenyl)-1H-pyrazol-5-yl)-3-(2-fluoro-4-(2-(1-methyl-1H-pyrazol-4-yl)pyridin-4-yloxy)phenyl)urea] | < 1000 | < 1000 | < 100 |
| CC(C)c1cc(NC(=O)Nc2ccc(Oc3ccnc(-c4cnn(C)c4)c3)cc2F)n(-c2cccc(F)c2)n1 [Example 24, 1-(2-fluoro-4-(2-(1-methyl-1H-pyrazol-4-yl)pyridin-4-yloxy)phenyl)-3-(1-(3-fluorophenyl)-3-isopropyl-1H-pyrazol-5-yl)urea] | < 100 | < 100 |  |
| Cn1cc(-c2cc(Oc3ccc(NC(=O)Nc4cc(-c5ccccc5F)nn4C)c(F)c3F)ccn2)cn1 [Example 25, 1-(2,3-difluoro-4-(2-(1-methyl-1H-pyrazol-4-yl)pyridin-4-yloxy)phenyl)-3-(3-(2-fluorophenyl)-1-methyl-1H-pyrazol-5-yl)urea] | < 1000 | < 1000 |  |
